We go through five compounds from patent US7884099B2 (priority 2007, dated 2011).

The structures appear in SMILES notation. Values after ≈ are worked out from the molar mass of the structure shown. Read-outs that look alike come from different tables or passages of the source. Bounds are passed on as bounds.

Test [1] concerns Staphylococcus aureus ATCC 29213. Briefly: MIC by microbroth dilution, S. aureus ATCC 29213. In kind it is cell-based. The procedure: (§1) Representative compounds are assayed for antimicrobial activity as follows: Minimum Inhibitory Concentrations (MICs) against Staphylococcus aureus ATCC 29213, its isogenic derivative, and Escherichia coli ATCC 25922 were determined by the microbroth dilution method, as per NCCLS guidelines (National Committee for Clinical Laboratory Standards 2000).

Another test deals with S. aureus rpoB^H481Y. In words: MIC by microbroth dilution, rifamycin-resistant S. aureus rpoB H481Y. It counts as cell-based, Staphylococcus aureus. To be noted: for MIC: Staphylococcus aureus, read-out: MIC S. aureus rpoB^H481Y. The method, then: as §1
A general note: Broth dilution looks for growth in wells or tubes with falling amounts of substance.

Test [2] has as its system S. aureus gyrA^S84L parC^S80F. In words: MIC by microbroth dilution, quinolone-resistant S. aureus gyrA S84L parC S80F. To be noted: for MIC: Staphylococcus aureus, read-out: MIC S. aureus gyrA^S84L parC^S80F. It counts as cell-based, Staphylococcus aureus. The method, then: as §1
Test [3] concerns S. aureus rpoB^H481Y gyrA^S84L parC^S80F. In words: MIC by microbroth dilution, triple mutant S. aureus. It counts as cell-based. To be noted: Staphylococcus aureus, read-out: MIC S. aureus rpoB^H481Y gyrA^S84L parC^S80F. The procedure:
as §1

Test [4] relates to Escherichia coli ATCC 25922. Briefly: MIC by microbroth dilution, E. coli ATCC 25922. In kind it is cell-based. The method, then:
as §1

The subject of test [5] is Wild-type and Genetically-Defined Resistant Strains of Bacteria. In words: Antibacterial activity against wild-type and genetically-defined resistant strains (overall statement on Table 1). In kind it is cell-based. To be noted: summary of Table 1. The procedure:
as §1

[6] abbreviates: ATCC29213, read-out: MIC S. aureus ATCC# 29213.
Setting [7] is: ATCC25922, read-out: MIC E. coli ATCC# 25922.
Setting [8] is: ATCC29213, wild-type, microbroth dilution, NCCLS, read-out: MIC S. aureus ATCC# 29213.
Setting [9] is: ATCC25922, microbroth dilution, NCCLS, read-out: MIC E. coli ATCC# 25922.

On to `CO[C@H]1/C=C/O[C@@]2(C)Oc3c(C)c(O)c4c(=O)c(c5oc6cc(N7CCC(N(C)C8([C@@H]9CCN(c%10c(F)cn%11c(=O)c(C(=O)O)cc(C%12CC%12)c%11c%10C)C9)CC8)CC7)cc(O)c6nc-5c4c3C2=O)NC(=O)/C(C)=C\C=C\[C@H](C)[C@H](O)[C@@H](C)[C@@H](O)[C@@H](C)[C@H](OC(C)=O)[C@@H]1C` [Example 1], for which the MIC is less than 0.004 µg/mL in test [1] (setting [6]); 0.12 µg/mL (≈ 0.0936 µM) with S. aureus rpoB^H481Y; less than 0.004 µg/mL in test [2]; 2 µg/mL (≈ 1.56 µM) in test [3]; 0.5 µg/mL (≈ 0.39 µM) in test [4] (setting [7]).

In the case of `COc1c(N2CC[C@@H](C3(N(C)C4CCN(c5cc(O)c6nc7c8c9c%10c(C)c(O)c8c(=O)c(c-7oc6c5)NC(=O)/C(C)=C\C=C\[C@H](C)[C@H](O)[C@@H](C)[C@@H](O)[C@@H](C)[C@H](OC(C)=O)[C@H](C)[C@@H](OC)/C=C/O[C@@](C)(O%10)C9=O)CC4)CC3)C2)c(F)cc2c(=O)c(C(=O)O)cn(C3CC3)c12` [Example 2, (R)-5′-[4-[1-[1-(3-Carboxy-1-cyclopropyl-6-fluoro-8-methoxy-4-oxo-1,4-dihydro-quinoline-7-yl)-pyrrolidin-3-yl-cyclopropyl-methyl]-amino]-piperidin-1-yl]-3′-hydroxy-benzoxazinorifamycin], the MIC in test [1] (setting [6]) was determined as 0.008 µg/mL (≈ 0.00617 µM); with S. aureus rpoB^H481Y, 0.5 µg/mL (≈ 0.385 µM); in test [2], 0.016 µg/mL (≈ 0.0123 µM); in test [3], 4 µg/mL (≈ 3.08 µM); in test [4] (setting [7]), 4 µg/mL (≈ 3.08 µM). Further, the “antibacterial activity (in words)” value in test [5] is “potent antibacterial activity”.

`COc1c(N2CCN(c3cc(O)c4nc5c6c7c8c(C)c(O)c6c(=O)c(c-5oc4c3)NC(=O)/C(C)=C\C=C\[C@H](C)[C@H](O)[C@@H](C)[C@@H](O)[C@@H](C)[C@H](OC(C)=O)[C@H](C)[C@@H](OC)/C=C/O[C@@](C)(O8)C7=O)CC2)c(F)cc2c(=O)c(C(=O)O)cn(C3CC3)c12` [Example 3, 5′-[4-(3-Carboxy-1-cyclopropyl-6-fluoro-8-methoxy-4-oxo-1,4-dihydroquinolin-7-yl)-piperazin-1-yl]-3′-hydroxy-benzoxazinorifamycin]: the MIC in test [1] (setting [6]) was determined as 0.008 µg/mL (≈ 0.0069 µM); with S. aureus rpoB^H481Y it was 0.24 µg/mL (≈ 0.207 µM); in test [2], 0.008 µg/mL (≈ 0.0069 µM); in test [3] it was 8 µg/mL (≈ 6.9 µM); in test [4] (setting [7]) it was 4 µg/mL (≈ 3.45 µM). Further, the “antibacterial activity (in words)” value in test [5] is given as “potent antibacterial activity”.

`O=C(O)c1cn(C2CC2)c2cc(N3CCNCC3)c(F)cc2c1=O` [ciprofloxacin, reference compound]: the MIC in test [1] (setting [8]) was 0.24 µg/mL (≈ 0.724 µM); with S. aureus rpoB^H481Y it was 0.24 µg/mL (≈ 0.724 µM); in test [2], greater than 32 µg/mL; in test [3], greater than 32 µg/mL; in test [4] (setting [9]), 0.008 µg/mL (≈ 0.0241 µM). Further, the “activity against quinolone-resistant S. aureus gyrA^S84L parC^S80F (in words)” value in test [2] (mutations in gyrase and topoisomerase IV) is “not as effective”.

With `CO[C@H]1/C=C/O[C@@]2(C)Oc3c(C)c(O)c4c(O)c(c(/C=N/N5CCN(C)CC5)c(O)c4c3C2=O)NC(=O)/C(C)=C\C=C\[C@H](C)[C@H](O)[C@@H](C)[C@@H](O)[C@@H](C)[C@H](OC(C)=O)[C@@H]1C` [rifampin, reference compound], the MIC in test [1] (setting [8]) was 0.008 µg/mL (≈ 0.00972 µM); in the test with S. aureus rpoB^H481Y, greater than 64 µg/mL; in test [2] it was 0.008 µg/mL (≈ 0.00972 µM); in test [3], greater than 64 µg/mL; in test [4] (setting [9]), 8 µg/mL (≈ 9.72 µM). Further, the “activity against rifamycin-resistant S. aureus rpoB^H481Y (in words)” value with S. aureus rpoB^H481Y (mutation in RNA polymerase) is “not as effective”.

Broadly, the MIC is the smallest concentration in the dilution series that meets the test's criterion for growth inhibition.
